# Assay results as given in patent publication US20230285261A1, “FRAGRANCE COMPOSITION COMPRISING A FRAGRANCE COMPONET AND A NON-ODOROUS FRAGRANCE MODULATOR” (Coty Inc., priority 2020, published 2023).
# Text: Classical perfume contain a high % of ethanol to solubilize perfume raw materials.
structure (smiles),measurement,value
"C[C@@H]1CC[C@H]2C(C)(C)[C@H]3C[C@@]12CC[C@@]3(C)O [Cerdol Crystals, Cedrol Crystals]",Max Solubility in 83% Ethanol/17% Glucam solution,0.431 g
same,Max Solubility in 88% Ethanol/12% Water solution,0.273 g
same,"solubility increase, glucam-containing vs classical ethanol solution",57.8%
